Experimental data from ChEMBL document CHEMBL1909046, “DrugMatrix in vitro pharmacology data”.

Key:
[1] = molecular target: T1, Alpha-2A adrenergic receptor (Homo sapiens, UniProt P08913); assay type: cell membranes, Sf9, Membrane; conditions: for Ki: read-out: Ki; as to all read-outs here: in other assays of this panel Not Active means under 50% inhibition at 10 µM
T1 sequence (P08913 whole entry): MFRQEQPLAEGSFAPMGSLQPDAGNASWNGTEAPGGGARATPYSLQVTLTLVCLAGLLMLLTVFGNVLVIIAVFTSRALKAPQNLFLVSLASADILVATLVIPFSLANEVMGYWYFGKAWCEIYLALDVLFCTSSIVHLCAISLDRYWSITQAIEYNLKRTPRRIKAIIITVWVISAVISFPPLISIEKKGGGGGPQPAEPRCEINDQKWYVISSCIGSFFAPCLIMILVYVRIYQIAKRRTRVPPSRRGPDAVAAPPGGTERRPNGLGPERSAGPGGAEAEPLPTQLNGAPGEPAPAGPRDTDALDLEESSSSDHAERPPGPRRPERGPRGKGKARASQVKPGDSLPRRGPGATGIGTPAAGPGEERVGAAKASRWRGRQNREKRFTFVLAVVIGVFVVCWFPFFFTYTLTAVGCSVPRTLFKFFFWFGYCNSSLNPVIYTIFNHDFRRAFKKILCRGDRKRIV

[2] = molecular target: Beta-1 adrenergic receptor (Homo sapiens, UniProt P08588); test: DRUGMATRIX: Adrenergic beta1 radioligand binding (ligand: [125I] Cyanopindolol); assay type: cell membranes, CHO-K1, Membrane; conditions: Not Active = under 50% inhibition at 10 µM
[3] = DRUGMATRIX: Calcium Channel Type L, Phenylalkylamine radioligand binding (ligand: [3H] (-)-Desmethoxyverapamil (D-888)); assay type: cell membranes, Rattus norvegicus, Wistar, Brain, Membrane; conditions: Not Active = under 50% inhibition at 10 µM
[4] = DRUGMATRIX: Phorbol Ester radioligand binding (ligand: [3H] PDBu); assay type: cell membranes, Mus musculus, ICR, Brain, Membrane; conditions: Not Active = under 50% inhibition at 10 µM
Interstitial collagenase = molecular target: T2, Interstitial collagenase (Homo sapiens, UniProt P03956); test: biochemical; assay type: tissue-based, Rheumatoid synovial fibroblasts;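 also: MMP-1 enzyme inhibition assay using a peptide substrate; in other assays of this panel Not Active means under 50% inhibition at 10 µM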
T2 sequence (P03956 whole entry): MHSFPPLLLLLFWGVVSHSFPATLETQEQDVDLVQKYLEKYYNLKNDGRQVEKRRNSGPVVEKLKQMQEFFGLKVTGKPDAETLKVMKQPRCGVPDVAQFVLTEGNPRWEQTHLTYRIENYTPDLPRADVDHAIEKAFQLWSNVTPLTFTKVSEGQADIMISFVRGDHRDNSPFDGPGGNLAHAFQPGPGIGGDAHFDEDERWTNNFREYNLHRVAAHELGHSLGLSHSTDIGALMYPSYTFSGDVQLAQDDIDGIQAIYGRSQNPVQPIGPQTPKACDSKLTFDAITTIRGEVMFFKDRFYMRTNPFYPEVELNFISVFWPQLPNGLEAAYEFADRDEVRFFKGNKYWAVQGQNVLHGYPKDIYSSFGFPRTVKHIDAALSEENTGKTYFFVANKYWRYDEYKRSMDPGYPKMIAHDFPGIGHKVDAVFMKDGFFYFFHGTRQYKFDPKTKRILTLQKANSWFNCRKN

Acetylcholinesterase = Acetylcholinesterase (Homo sapiens, UniProt P22303); test: DRUGMATRIX: Acetylcholinesterase enzyme inhibition (substrate: acetylthiocholine); assay type: cell-based, HEK293; conditions: Not Active = under 50% inhibition at 10 µM
Chain of Acetylcholinesterase (P22303 whole entry): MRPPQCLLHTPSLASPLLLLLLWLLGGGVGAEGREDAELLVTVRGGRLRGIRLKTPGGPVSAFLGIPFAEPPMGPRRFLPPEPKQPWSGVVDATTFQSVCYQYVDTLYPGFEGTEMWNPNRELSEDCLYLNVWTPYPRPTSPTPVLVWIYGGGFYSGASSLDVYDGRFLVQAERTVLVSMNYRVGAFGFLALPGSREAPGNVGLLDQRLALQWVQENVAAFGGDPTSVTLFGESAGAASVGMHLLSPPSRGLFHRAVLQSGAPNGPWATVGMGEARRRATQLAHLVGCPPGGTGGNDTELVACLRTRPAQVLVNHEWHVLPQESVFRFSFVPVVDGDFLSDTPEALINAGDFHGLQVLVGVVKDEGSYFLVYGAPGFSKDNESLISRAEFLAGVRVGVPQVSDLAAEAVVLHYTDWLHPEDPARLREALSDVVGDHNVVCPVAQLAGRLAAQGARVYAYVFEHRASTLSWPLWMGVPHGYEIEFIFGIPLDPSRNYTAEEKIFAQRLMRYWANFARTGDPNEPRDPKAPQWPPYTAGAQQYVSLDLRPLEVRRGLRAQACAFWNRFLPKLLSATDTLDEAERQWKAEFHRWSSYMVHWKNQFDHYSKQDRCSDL

Chain of Beta-1 adrenergic receptor (P08588 whole entry): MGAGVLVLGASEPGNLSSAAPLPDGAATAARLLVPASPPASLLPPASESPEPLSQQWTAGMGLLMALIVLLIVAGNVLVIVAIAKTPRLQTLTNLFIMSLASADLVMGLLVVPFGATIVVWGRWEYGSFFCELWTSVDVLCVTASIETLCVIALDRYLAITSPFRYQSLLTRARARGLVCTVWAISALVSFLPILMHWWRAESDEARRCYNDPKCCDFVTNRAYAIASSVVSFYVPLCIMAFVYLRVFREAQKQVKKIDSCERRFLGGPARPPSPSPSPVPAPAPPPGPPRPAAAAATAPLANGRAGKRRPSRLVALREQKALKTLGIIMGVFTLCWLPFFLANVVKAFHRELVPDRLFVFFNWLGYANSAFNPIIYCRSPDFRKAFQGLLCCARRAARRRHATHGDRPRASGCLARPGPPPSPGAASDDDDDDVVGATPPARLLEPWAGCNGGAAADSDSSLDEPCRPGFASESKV

| SMILES | IC50 ([1]; sf9) | IC50 ([2]; cho-k1) | IC50 ([3]; read-out: IC50) [µM] | Ki ([3]; read-out: Ki) [µM] | IC50 [4] | Ki [4] | IC50 (Interstitial collagenase) | IC50 (Acetylcholinesterase; hek293) | IC50 [3] | Ki [3] | IC50 ([1]; read-out: IC50) [nM] | Ki [1] [nM] | IC50 ([2]; read-out: IC50) [µM] | Ki ([2]; read-out: Ki) [µM] | IC50 (Acetylcholinesterase; read-out: IC50) [µM] |
| --- | --- | --- | --- | --- | --- | --- | --- | --- | --- | --- | --- | --- | --- | --- | --- |
| CC(C)(C)NC(=O)[C@@H]1C[C@@H]2CCCC[C@@H]2CN1C[C@@H](O)[C@H](Cc1ccccc1)NC(=O)[C@H](CC(N)=O)NC(=O)c1ccc2ccccc2n1 | Not Active | Not Active | 6.83 | 6.65 | Not Active | Not Active | Not Active | Not Active |  |  |  |  |  |  |  |
| CC(=O)[C@@]1(O)CC[C@H]2[C@@H]3C[C@H](C)C4=CC(=O)CC[C@]4(C)[C@H]3CC[C@@]21C | Not Active | Not Active |  |  | Not Active | Not Active | Not Active | Not Active | Not Active | Not Active |  |  |  |  |  |
| N[C@@H](Cc1ccc(N(CCCl)CCCl)cc1)C(=O)O | Not Active | Not Active |  |  | Not Active | Not Active | Not Active | Not Active | Not Active | Not Active |  |  |  |  |  |
| CCCCc1oc2ccccc2c1C(=O)c1cc(I)c(OCCN(CC)CC)c(I)c1 [AMIODARONE] |  |  |  |  |  |  | Not Active | Not Active |  |  |  |  |  |  |  |
| OCCN(CCO)c1nc(N2CCCCC2)c2nc(N(CCO)CCO)nc(N3CCCCC3)c2n1 [DIPYRIDAMOLE] | Not Active | Not Active |  |  | Not Active | Not Active | Not Active | Not Active | Not Active | Not Active |  |  |  |  |  |
| Cc1oncc1C(=O)Nc1ccc(C(F)(F)F)cc1 [LEFLUNOMIDE] | Not Active | Not Active |  |  | Not Active | Not Active | Not Active | Not Active | Not Active | Not Active |  |  |  |  |  |
| c1ccc([C@H]2CN3CCSC3=N2)cc1 [LEVAMISOLE] | Not Active | Not Active |  |  | Not Active | Not Active | Not Active | Not Active | Not Active | Not Active |  |  |  |  |  |
| N[C@@H](Cc1ccc(O)c(O)c1)C(=O)O [LEVODOPA] | Not Active | Not Active |  |  | Not Active | Not Active | Not Active | Not Active | Not Active | Not Active |  |  |  |  |  |
| N[C@@H](Cc1cc(I)c(Oc2ccc(O)c(I)c2)c(I)c1)C(=O)O [LIOTHYRONINE] | Not Active | Not Active |  |  |  |  | Not Active | Not Active |  |  |  |  |  |  |  |
| O=NN(CCCl)C(=O)NC1CCCCC1 [LOMUSTINE] | Not Active | Not Active |  |  | Not Active | Not Active | Not Active | Not Active | Not Active | Not Active |  |  |  |  |  |
| CCOC(=O)N1CCC(=C2c3ccc(Cl)cc3CCc3cccnc32)CC1 [LORATADINE] | Not Active | Not Active |  |  | Not Active | Not Active | Not Active | Not Active | Not Active | Not Active |  |  |  |  |  |
| Cn1ccnc1S [METHIMAZOLE] | Not Active | Not Active |  |  | Not Active | Not Active | Not Active | Not Active | Not Active | Not Active |  |  |  |  |  |
| CC[C@@H](CO)NC(=O)[C@@H]1C=C2c3cccc4[nH]cc(c34)C[C@H]2N(C)C1 [METHYLERGONOVINE] |  |  |  |  | Not Active | Not Active | Not Active | Not Active | Not Active | Not Active | 1590 | 596 |  |  |  |
| COc1nc(C)nc(Cl)c1NC1=NCCN1 [MOXONIDINE] | Not Active | Not Active |  |  | Not Active | Not Active | Not Active | Not Active | Not Active | Not Active |  |  |  |  |  |
| COc1c(C)c2c(c(O)c1C/C=C(\C)CCC(=O)O)C(=O)OC2 [MYCOPHENOLIC ACID] | Not Active | Not Active |  |  | Not Active | Not Active | Not Active | Not Active | Not Active | Not Active |  |  |  |  |  |
| O=c1ncn2nc(Sc3ccc(F)cc3F)ccc2c1-c1c(Cl)cccc1Cl [NEFLAMAPIMOD] |  | Not Active |  |  | Not Active | Not Active | Not Active | Not Active | Not Active | Not Active | 34200 | 12800 |  |  |  |
| CN1CCN(CCCN2c3ccccc3Sc3ccc(Cl)cc32)CC1 [PROCHLORPERAZINE] |  | Not Active |  |  |  |  | Not Active | Not Active |  |  |  |  |  |  |  |
| CO[C@H]1/C=C/O[C@@]2(C)Oc3c(C)c(O)c4c(O)c(c(/C=N/N5CCN(C)CC5)c(O)c4c3C2=O)NC(=O)/C(C)=C\C=C\[C@H](C)[C@H](O)[C@@H](C)[C@@H](O)[C@@H](C)[C@H](OC(C)=O)[C@@H]1C [RIFAMPIN] | Not Active | Not Active |  |  | Not Active | Not Active | Not Active | Not Active | Not Active | Not Active |  |  |  |  |  |
| Nc1nc2ccc(OC(F)(F)F)cc2s1 [RILUZOLE] | Not Active | Not Active |  |  | Not Active | Not Active | Not Active | Not Active | Not Active | Not Active |  |  |  |  |  |
| Cc1nc2n(c(=O)c1CCN1CCC(c3noc4cc(F)ccc34)CC1)CCCC2 [RISPERIDONE] |  | Not Active |  |  |  |  | Not Active | Not Active |  |  |  |  |  |  |  |
| C=CCC1(C(C)CCC)C(=O)NC(=O)NC1=O (configuration not stated) [SECOBARBITAL] | Not Active | Not Active |  |  | Not Active | Not Active | Not Active | Not Active | Not Active | Not Active |  |  |  |  |  |
| C[C@@H]1CN(c2c(F)c(N)c3c(=O)c(C(=O)O)cn(C4CC4)c3c2F)C[C@H](C)N1 [SPARFLOXACIN] | Not Active | Not Active |  |  | Not Active | Not Active | Not Active | Not Active | Not Active | Not Active |  |  |  |  |  |
| Cc1noc(NS(=O)(=O)c2ccc(N)cc2)c1C [SULFISOXAZOLE] | Not Active | Not Active |  |  | Not Active | Not Active | Not Active | Not Active | Not Active | Not Active |  |  |  |  |  |
| CSc1ccc(/C=C2/C(C)=C(CC(=O)O)c3cc(F)ccc32)cc1 [SULINDAC SULFIDE] | Not Active | Not Active |  |  | Not Active | Not Active | Not Active | Not Active | Not Active | Not Active |  |  |  |  |  |
| Nc1c2c(nc3ccccc13)CCCC2 [TACRINE] | Not Active | Not Active |  |  | Not Active | Not Active | Not Active |  | Not Active | Not Active |  |  |  |  |  |
| CC/C(=C(\c1ccccc1)c1ccc(OCCN(C)C)cc1)c1ccccc1 [TAMOXIFEN] |  |  |  |  |  |  | Not Active | Not Active |  |  | 1930 | 726 | 17.3 | 9.98 |  |
| CC(C)N1CCN(c2ccc(OCC3COC(Cn4cncn4)(c4ccc(Cl)cc4Cl)O3)cc2)CC1 (configuration not stated) [TERCONAZOLE] |  |  | 3.46 | 3.36 | Not Active | Not Active | Not Active |  |  |  | 983 | 369 |  |  | 21.6 |
| Nc1nc2nc[nH]c2c(=S)[nH]1 [THIOGUANINE] | Not Active | Not Active |  |  | Not Active | Not Active | Not Active | Not Active | Not Active | Not Active |  |  |  |  |  |
